In article PMC10254045, “Elaboration of the Effective Multi-Target Therapeutic Platform for the Treatment of Alzheimer’s Disease Based on Novel Monoterpene-Derived Hydroxamic Acids” (International Journal of Molecular Sciences, 2023):

Columns and labels:
Cell viability, MTT test = format: cell-based; details: human, SH-SY5Y neuroblastoma cells, 24-h exposure, read-out: IC50 cytotoxic action
Procedure: The culture of human neuroblastoma cells (defined as SH-SY5Y) was cultured in DMEM with the addition of embryonic bovine serum (10%), 2 mM glutamine (DiaM, Moscow, Russia) and penicillin-streptomycin (100 U/Ml–100 µg/mL, PanEco, Moscow, Russia) in conditions of 5% CO2 in the air at 37 °C. Upon reaching 80% confluence, cells in the amount of 1 × 10^4 were placed in 96-well transparent plates and incubated under the same conditions for 24 h. After the incubation time, the cells were exposed to a 24-h exposure to various concentrations of hydroxamic acids dissolved in dimethyl sulfoxide (range from 1 to 100 µM). An equivalent volume of solvent was used as a control (final DMSO content = 1%).
Cell survival analysis was performed using MTT test. To do this, 3-(4,5-dimethylthiazol-2-yl)-2,5-diphenyltetrazolium bromide (MTT, 5 mg/mL, DiaM, Moscow, Russia) was introduced into all wells and incubated at 37 °C for 2 h to restore metabolically active cells of the yellow tetrazolium salt MTT to purple formazane crystals. The resulting formazane was then re-suspended in 200 µL DMSO per well. The optical density was recorded using a multifunctional Cytation™3 flatbed analyzer (BioTek Instruments, Inc., Winooski, VT, USA) at λ = 530 nm.

HDAC6 = biological target: T1, HDAC6 (Homo sapiens, UniProt Q9UBN7); assay: Fluorimetric measurement of HDAC6 activity (FLUOR DE LYS kit); format: biochemical; details: for IC50: Table 1, read-out: HDAC6-Inhibitory Effect, IC50; for ability to inhibit the enzymatic activity of HDAC6: in words
T1 construct: purchased Enzo Life Sciences
T1 sequence (Q9UBN7 1-1215): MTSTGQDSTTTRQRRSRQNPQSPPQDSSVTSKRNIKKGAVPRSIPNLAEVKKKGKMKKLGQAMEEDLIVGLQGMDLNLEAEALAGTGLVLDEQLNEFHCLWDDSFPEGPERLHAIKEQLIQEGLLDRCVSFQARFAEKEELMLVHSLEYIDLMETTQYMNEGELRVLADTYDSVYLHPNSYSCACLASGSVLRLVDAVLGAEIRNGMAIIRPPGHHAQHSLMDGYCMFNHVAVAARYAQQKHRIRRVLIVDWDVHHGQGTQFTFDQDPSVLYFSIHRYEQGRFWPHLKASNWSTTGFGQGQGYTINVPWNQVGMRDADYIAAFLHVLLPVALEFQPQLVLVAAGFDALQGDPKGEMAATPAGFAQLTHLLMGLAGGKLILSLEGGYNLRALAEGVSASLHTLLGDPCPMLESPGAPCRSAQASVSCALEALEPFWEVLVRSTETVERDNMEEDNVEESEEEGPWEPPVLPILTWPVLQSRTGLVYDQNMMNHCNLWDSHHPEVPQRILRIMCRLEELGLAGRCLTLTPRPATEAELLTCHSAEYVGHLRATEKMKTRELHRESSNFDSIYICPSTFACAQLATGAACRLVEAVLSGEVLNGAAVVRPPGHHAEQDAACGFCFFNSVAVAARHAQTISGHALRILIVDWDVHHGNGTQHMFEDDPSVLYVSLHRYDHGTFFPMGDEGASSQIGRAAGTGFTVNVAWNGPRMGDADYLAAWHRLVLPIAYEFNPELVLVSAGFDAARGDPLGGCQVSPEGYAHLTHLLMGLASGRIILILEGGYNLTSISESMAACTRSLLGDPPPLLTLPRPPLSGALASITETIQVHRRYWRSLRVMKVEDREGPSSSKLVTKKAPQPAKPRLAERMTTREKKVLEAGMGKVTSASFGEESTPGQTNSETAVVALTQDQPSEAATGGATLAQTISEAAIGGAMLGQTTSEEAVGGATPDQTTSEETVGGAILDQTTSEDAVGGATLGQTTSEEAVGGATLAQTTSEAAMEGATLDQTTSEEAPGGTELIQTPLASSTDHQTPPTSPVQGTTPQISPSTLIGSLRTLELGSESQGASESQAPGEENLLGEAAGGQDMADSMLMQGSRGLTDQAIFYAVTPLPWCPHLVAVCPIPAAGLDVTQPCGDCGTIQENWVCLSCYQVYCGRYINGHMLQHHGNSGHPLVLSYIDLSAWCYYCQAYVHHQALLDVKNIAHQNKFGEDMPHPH

[1] = DPPH radical scavenging activity; details: Trolox equivalent; compounds and Trolox 100 µM
Source text: (§1) DPPH is a stable chromogen radical, which is widely used to assess the antioxidant activity of biological objects, in particular when searching for potential therapeutic agents used to maintain the redox balance in the body and treat pathologies associated with the action of free radicals. In turn, the oxygen radical absorbance capacity (ORAC) analysis is based on the removal by potential antioxidants of peroxyl radicals generated by AAPH (2,2’-axobis-2-methyl-propanimidamide, dihydrochloride), preventing the degradation of the fluorescein probe.
The measurement of the antiradical activity of synthesized hydroxamic acids was carried out using the method described in [150]. The studied compounds were introduced into the wells of a 96-well black tablet (the final concentration was 100 microns), after which a freshly prepared solution of 2,2-diphenyl-1-picrylhydrazyl (Sigma Aldrich, St. Louis, Missouri, USA) was added. After the incubation time had elapsed, the DPPH radical-scavenging activity was measured using a multifunctional Cytation™3 tablet analyzer (BioTek Instruments, Inc., Winooski, VT, USA) at λ = 517 nm by the difference in the reduction of the DPPH radical peak between control samples containing an equivalent volume of solvent and samples with the substances under study.

[2] = Oxygen radical absorbance capacity (ORAC); details: Trolox equivalent; compounds and Trolox 100 µM, AAPH 12 mM
Source text: as §1
The analysis of the absorption capacity of oxygen radicals was performed as described in [151], with some modifications. Trolox (Sigma Aldrich, St. Louis, MI, USA) was used as a standard antioxidant. The studied compounds were introduced into the holes of a 96-hole black tablet with a transparent bottom with Trolox (25 µL; the final concentration was 100 µM) and fluorescein (150 µL; the final concentration was 80 nM, Sigma Aldrich, St. Louis, MI, USA). The resulting mixture was shaken and incubated for 30 min at 37 °C. After a 30-min incubation period, a solution of 2,2’-azobis (2-amidinopropane) dihydrochloride (AAPH) (25 µL; final concentration of 12 mM, Sigma Aldrich, St. Louis, MI, USA) was quickly introduced into all wells of the tablet. The tablet was immediately placed in a multifunctional tablet analyzer Cytation™ 3 (BioTek Instruments, Inc., Winooski, VT, USA). The fluorescence intensity was recorded for 300 min at λex = 480 nm, λem = 520 nm with an interval of every 5 min. In the same experiment, calibration solutions for the reference antioxidant Trolox were used to confirm the validity of the use of this method (0, 6.25, 12.5, 25, 50 and 100 µM).

[3] = biological target: T2, β-amyloid peptide 1-42 (Aβ1-42) (Homo sapiens, UniProt P05067); assay: Thioflavin T fluorescent analysis of Aβ1-42 aggregation; format: biochemical; details: 48 h, compounds 100 µM, Thioflavin T 10 µM, 48 h registration; read-out: prevention of the aggregation of Aβ1-42
T2 construct: the pathological form of β-amyloid peptide 1-42 (Sigma Aldrich); purchased Sigma Aldrich
T2 sequence (P05067 672-713 limits assumed): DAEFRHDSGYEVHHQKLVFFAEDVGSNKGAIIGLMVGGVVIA
Source text: The aggregation process of β-amyloid peptide 1-42 (Aβ1-42), caused by hydrophobic interactions of peptide monomers and, as a consequence, the formation of the most toxic polymorphic structure-oligomeric fragments of Aβ, was detected using the fluorescent dye Thioflavin T (Figure 4a). This method is the most widely used for selective staining and the identification of amyloid aggregates, which is confirmed by a large number of works. Fluorescence analysis using Thioflavin T made it possible to monitor the aggregation process of the pathological form of β-amyloid peptide 1-42 (Sigma Aldrich, St. Louis, MI, USA). The experimental protocol was carried out similarly to that described in [58] with some modifications. The registration of changes in the fluorescence of thioflavin T (10 µM, Sigma Aldrich, St. Louis, MI, USA) was performed on a multifunctional tablet analyzer Cytation™3 (BioTek Instruments, Inc., Winooski, VT, USA) at λex = 450 nm, λem = 480 nm. The fluorescence intensity of the solution without Aβ1-42 was subtracted from the fluorescence values of solutions containing protein, due to the need to subtract the background fluorescence.

SMILES	IC50 at 24 h (Cell viability, MTT test) [µM]	IC50 (HDAC6) [µM]	ability to inhibit the enzymatic activity of HDAC6 (HDAC6)	DPPH value (TE) [1] [TE]	ORAC value (TE) [2] [TE]	melting point [°C]	inhibition at 100 µM [3] [%]
CC1=CC[C@@H](CC(=O)NO)C1(C)C [(+)-13, (S)-N-Hydroxy-2-(2,2,3-trimethylcyclopent-3-en-1-yl)acetamide]	> 100	> 100	no significant ability	0.26	0.94	–	–
CC1(C)[C@@H]2CC=C(C(=O)NO)[C@H]1C2 [(+)-19, (1S,5R)-N-Hydroxy-6,6-dimethylbicyclo [3.1.1]hept-2-ene-2-carboxamide]	> 100	> 100	no significant ability	0.50	1.02	–	–
CC1=CC[C@H](CC(=O)NO)C1(C)C [(-)-13, (R)-N-Hydroxy-2-(2,2,3-trimethylcyclopent-3-en-1-yl)acetamide]	> 100	> 100	no significant ability	0.39	0.93	–	–
CC1(C)[C@H]2CC=C(C(=O)NO)[C@@H]1C2 [(-)-19, (1R,5S)-N-Hydroxy-6,6-dimethylbicyclo [3.1.1]hept-2-ene-2-carboxamide]	> 100	> 100	no significant ability	0.15	0.85	–	–
CC(CCCC(C)(C)O)CC(=O)NO (stereo not shown) [Compound 5, N,7-dihydroxy-3,7-dimethyloctanamide]	> 100	> 100	no significant ability	0.17	0.88	–	–
CC(C)CCCC(C)CC(=O)NO (stereo not shown) [Compound 8, N-Hydroxy-3,7-dimethyloctanamide]	> 100	> 100	no significant ability	0.36	0.83	–	–
CC(C)=CCCC(C)CC(=O)NO (stereo not shown) [Compound 10, N-Hydroxy-3,7-dimethyloct-6-enamide]	> 100	> 100	no significant ability	0.19	0.84	–	–
C=C(C)[C@@H]1CC=C(C(=O)NO)CC1 [Compound 16, (S)-N-Hydroxy-4-(prop-1-en-2-yl)cyclohex-1-enecarboxamide]	> 100	87.4 ± 2.33	no significant ability	0.23	0.87	–	–
C=C(C)[C@@H]1CC=C(CNC(=O)CCCCCCC(=O)NO)CC1 [Compound 30, (S)-N1-Hydroxy-N8-((4-(prop-1-en-2-yl)cyclohex-1-en-1-yl)methyl)octanediamide]	> 100	0.56 ± 0.01	–	0.25	0.87	113.5 to 116	≤ 40
C=C(C)[C@@H]1CC=C(CNC(=O)CCCCCCCC(=O)NO)CC1 [Compound 31, (S)-N1-hydroxy-N9-((4-(prop-1-en-2-yl)cyclohex-1-en-1-yl)methyl)nonanediamide]	89.4 ± 3.92	0.74 ± 0.02	–	0.30	0.82	110.8	≤ 40
CC(C)c1ccc(CNC(=O)/C=C/c2ccc(C(=O)NO)cc2)cc1 [Compound 35b, (E)-N-hydroxy-4-(3-((4-isopropylbenzyl)amino)-3-oxoprop-1-en-1-yl)benzamide]	> 100	8.23 ± 0.4	–	0.50	1.00	187.4 to 189.7	59.9
